Tested on: MIA PaCa-2 cells
Experiment: Transwell migration assay
Format: cell-based
Conditions: for migrated cells (Fig S20): MIA PaCa-2 cells
Procedure: Fig. 5 The BIVA effect with enhanced targeting to pancreatic tumor cell for boundaries imaging. a Illustration of BIVA effect: active targeting and assembly/aggregate induced retention (AIR) effect. b Chemical structure of FITC labeling. c 2D and 3D confocal images of M2 with active targeting property and M1 with BIVA effect on MIA PaCa-2 cells after incubation for 1 h. d The distribution of M1 on MIA PaCa-2 cell. e ThT staining of the lysed cell membrane of MIA PaCa-2. f, Illustration of migration inhibition after treated by BIVA probe. g The image of the migrated cells after treatment of PBS (blank), M2, M4, and M1. Scale bar: 100 μm. h The pie diagram of quantitative statistical calculation of the migrated cells (blue) in different groups. The blank control was set as 100% migrated cells.
In order to further understand the contribution of the active targeting and AIR effect during locating of the cells, the cell transwell experiment was used to quantitively evaluate interference of the cell migration based on M1, M2, and M4 (Fig. 5f). As expected, untreated cells were easy to migrate to the lower chamber, while the cells treated with active targeting molecule M2 and assembled molecule M4, the migration of cell were reduced. Under the same molar concentration, the M1 treatment group had the most inference on cell migration (Fig. 5g). […] Based on those results, we speculate M1 can be more enriched in the tumor site and form fibers through assembly to inhibit tumor cell migration compared to M2 and M4 which have no ability to target and adhere on the cell membrane.
Transwell migration assay occurred in chemotaxis chambers containing 24 wells. […] Bottom chambers contained DMEM medium containing 10% FBS. After 24 h of treatment with M1, M2, and M4 (150 μM), we fixed cells using 4% paraformaldehyde and stained with 0.25% crystal violet solution. The stained cells were counted using a microscope.
Supplementary Fig. 20∣ The quantitative results of the migrated cells after treatment of PBS (blank), M2, […] and
M1 (Fig 5g). The mean of results of fiveparallel experiments is shown and data were expressed as mean ± SD (n=5).
pM1 = 5.85E-06, pM2 = 5.94E-05, pM4 = 3.16 E-04, Statisticalanalysis: one-way ANOVA followed by post hoc Tukey’s
(1 picture or pasted object on this page, not shown here)

## mPEG-GPAKLVFFGC(IR783)GRGD [M1]
MIA PaCa-2, 150 μM, 24 h, blank control = 1
  emigrate (migrated cells relative to blank): 0.3109
Averge of groups 1-3
  migrated cells (Fig S20): 285.333
Group 1
  migrated cells (Fig S20): 285
Group 2
  migrated cells (Fig S20): 302
Group 3
  migrated cells (Fig S20): 269

## mPEG-GPAKLVFFGCGRGD [M3, the non-labeling molecule of M1 (no IR783)]
Averge of groups 1-3
  migrated cells (Fig S20): 484.667
Group 1
  migrated cells (Fig S20): 483
Group 2
  migrated cells (Fig S20): 456
Group 3
  migrated cells (Fig S20): 515

Source: article PMC8776730 (Nature Communications, 2022)
